Data from US20230172923A1, “METHODS OF TREATING CYTOKINE-RELATED ADVERSE EVENTS” (BRISTOL-MYERS SQUIBB COMPANY, priority 2020, published 2023).

Experiments:
Type in all cases: cell-based, human
MIP-1α = assay: LPS-stimulated PBMC cytokine production, multiplex cytokine analysis: MIP-1α; settings: PBMC 2×10^6 cells/ml, compound 1 hour, then 1 ng/ml LPS 18 hours
Experimental: (§1) Peripheral blood mononuclear cells (PBMCs) were isolated from the blood of healthy human donors by Ficoll cell separation. The PBMCs were seeded at a concentration of 2×10^6 cells/ml and treated for 1 hour at 37° C. with various concentrations of IMiD compounds or control DMSO (0.25%), before stimulation with 1 ng/ml LPS for 18 hours at 37° C.
(§2) Supernatant samples were subjected to multiplex cytokine analysis (Luminex IS100 instrument) to quantify secreted levels of IL-6, IL-8, IL1-beta (IL-1β), GM-CSF, MDC, MIP-1alpha (MIP-1α), MIP-1beta (MIP-1β) and TNF-alpha (TNF-α) (see e.g. FIGS. 7A-C).
(§3) IC50 (half maximal inhibitory concentration) values were calculated to measure the potency of each IMiD compound in inhibiting LPS-stimulated secretion of each cytokine (see Table 25).

MIP-1β = assay: LPS-stimulated PBMC cytokine production, multiplex cytokine analysis: MIP-1β; settings: PBMC 2×10^6 cells/ml, compound 1 hour, then 1 ng/ml LPS 18 hours
Experimental: (§4) Peripheral blood mononuclear cells (PBMCs) were isolated from the blood of healthy human donors by Ficoll cell separation. […] Supernatant samples were subjected to multiplex cytokine analysis (Luminex IS100 instrument) to quantify secreted levels of IL-6, IL-8, IL1-beta (IL-1β), GM-CSF, MDC, MIP-1alpha (MIP-1α), MIP-1beta (MIP-1β) and TNF-alpha (TNF-α) (see e.g. FIGS. 7A-C). IC50 (half maximal inhibitory concentration) values were calculated to measure the potency of each IMiD compound in inhibiting LPS-stimulated secretion of each cytokine (see Table 25).

[1] = test system: IL-6, IL-8, IL-1β, GM-CSF, MDC, MIP-1α, MIP-1β and TNF-α; assay: LPS-induced secretion of proinflammatory cytokines from PBMCs (whole multiplex panel, result in words); settings: pre-treatment 1 hour, 1 ng/ml LPS 18 hours
Experimental: Peripheral blood mononuclear cells (PBMCs) from healthy volunteers were seeded at a concentration of 2×10^6 cells/ml and treated with the indicated concentrations of IMiD compounds or control DMSO (0.25%) for 1 hour, before stimulation with 1 ng/ml LPS. After 18 hours, proinflammatory cytokine levels in the supernatant were assessed by multiplex cytokine analysis.
as §1, §2

IL-1β = assay: LPS-stimulated PBMC cytokine production, multiplex cytokine analysis: IL-1β; settings: PBMC 2×10^6 cells/ml, compound 1 hour, then 1 ng/ml LPS 18 hours
Experimental: as §4

MDC = assay: LPS-stimulated PBMC cytokine production, multiplex cytokine analysis: MDC; settings: PBMC 2×10^6 cells/ml, compound 1 hour, then 1 ng/ml LPS 18 hours
Experimental: as §4

GM-CSF = assay: LPS-stimulated PBMC cytokine production, multiplex cytokine analysis: GM-CSF; settings: PBMC 2×10^6 cells/ml, compound 1 hour, then 1 ng/ml LPS 18 hours
Experimental: as §4

TNF-α = assay: LPS-stimulated PBMC cytokine production, multiplex cytokine analysis: TNF-α; settings: PBMC 2×10^6 cells/ml, compound 1 hour, then 1 ng/ml LPS 18 hours
Experimental: as §1, §2, §3

IL-8 = assay: LPS-stimulated PBMC cytokine production, multiplex cytokine analysis: IL-8; settings: PBMC 2×10^6 cells/ml, compound 1 hour, then 1 ng/ml LPS 18 hours
Experimental: as §1, §2, §3

IL-6 = assay: LPS-stimulated PBMC cytokine production, multiplex cytokine analysis: IL-6; settings: PBMC 2×10^6 cells/ml, compound 1 hour, then 1 ng/ml LPS 18 hours
Experimental: as §4

Row | IC50 (MIP-1α) | IC50 (MIP-1β; Homo sapiens) | IC50 (IL-1β) | IC50 (MDC) | IC50 (GM-CSF) | IC50 (TNF-α) | IC50 (IL-8; Homo sapiens) | IC50 (IL-6) | IC50 (MIP-1β) | IC50 (IL-8) | IC50 (MIP-1α; Homo sapiens, PBMC) | IC50 (IL-1β; Homo sapiens) | IC50 (TNF-α; Homo sapiens) | IC50 (IL-6; Homo sapiens) | IC50 (IL-1β; Homo sapiens, PBMC) | IC50 (MDC; Homo sapiens, PBMC) | IC50 (GM-CSF; Homo sapiens, PBMC) | IC50 (TNF-α; Homo sapiens, PBMC) | IC50 (IL-6; Homo sapiens, PBMC) | Compound | LPS-induced secretion of proinflammatory cytokines from PBMCs (effect in words) [1]
1 | 0.19 µM | > 10 µM | 0.00085 µM | 0.0026 µM | 0.0092 µM | 0.0018 µM | > 10 µM | 0.01 µM | – | – | – | – | – | – | – | – | – | – | – | O=C1CCC(N2Cc3c(OCc4ccc(CN5CCOCC5)cc4)cccc3C2=O)C(=O)N1 (single isomer, unassigned) [Compound A] | inhibited
2 | 0.45 µM | – | 0.0062 µM | 0.012 µM | 0.039 µM | 0.0095 µM | – | 0.083 µM | > 10 µM | > 10 µM | – | – | – | – | – | – | – | – | – | O=C1CCC(N2Cc3c(OCc4ccc(CN5CCOCC5)cc4)cccc3C2=O)C(=O)N1 (single isomer, unassigned) [Compound B] | inhibited
3 | – | > 10 µM | – | – | – | – | > 10 µM | – | – | – | 0.3 µM | 0.054 µM | 0.034 µM | 0.06 µM | – | – | – | – | – | Cc1nc2cccc(N)c2c(=O)n1C1CCC(=O)NC1=O (stereo not shown) [Avadomide, 3-(5-amino-2-methyl-4-oxo-3,4-dihydroquinazolin-3-yl)piperidine-2,6-dione] | inhibited
4 | – | > 10 µM | – | – | – | – | > 10 µM | – | – | – | > 10 µM | – | – | – | > 10 µM | > 10 µM | > 10 µM | > 10 µM | > 10 µM | O=C1CCC(N2C(=O)c3ccccc3C2=O)C(=O)N1 (stereo not shown) [Thalidomide, 2-(2,6-dioxopiperidin-3-yl)-2,3 dihydro-1H-isoindole-1,3-dione] | minimal to no effect
